The target in assay [1] is T1, NAD-dependent protein deacylase sirtuin-6 (Homo sapiens, UniProt Q8N6T7). Put plainly: Inhibition of human SIRT6 (1 to 294 residues) expressed in Escherichia coli Rosetta (DE3) using H3K9AcWW as substrate preincubated for 15 mins followed by substrate addition measured after 1 hr by HPLC analysis.
In assay [2] the target is T2, NAD-dependent protein deacylase sirtuin-5, mitochondrial (Homo sapiens, UniProt Q9NXA8). Briefly: Inhibition of human SIRT5 expressed in Escherichia coli BL21 using H3K9AcWW as substrate preincubated for 15 mins followed by substrate addition measured after 1 hr by HPLC analysis.
Target sequence in this assay (Q9NXA8 whole entry): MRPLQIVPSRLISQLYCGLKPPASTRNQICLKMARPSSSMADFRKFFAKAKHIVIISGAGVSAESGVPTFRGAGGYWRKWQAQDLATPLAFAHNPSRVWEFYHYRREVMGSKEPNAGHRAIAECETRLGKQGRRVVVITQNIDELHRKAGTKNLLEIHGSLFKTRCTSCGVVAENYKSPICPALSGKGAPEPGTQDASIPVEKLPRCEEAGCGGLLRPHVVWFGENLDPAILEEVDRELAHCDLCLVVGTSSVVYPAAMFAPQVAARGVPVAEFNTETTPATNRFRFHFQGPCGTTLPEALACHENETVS
For assay [3], the target named is T3, NAD-dependent protein deacetylase sirtuin-3, mitochondrial (Homo sapiens, UniProt Q9NTG7).
T3 sequence (Q9NTG7 whole entry): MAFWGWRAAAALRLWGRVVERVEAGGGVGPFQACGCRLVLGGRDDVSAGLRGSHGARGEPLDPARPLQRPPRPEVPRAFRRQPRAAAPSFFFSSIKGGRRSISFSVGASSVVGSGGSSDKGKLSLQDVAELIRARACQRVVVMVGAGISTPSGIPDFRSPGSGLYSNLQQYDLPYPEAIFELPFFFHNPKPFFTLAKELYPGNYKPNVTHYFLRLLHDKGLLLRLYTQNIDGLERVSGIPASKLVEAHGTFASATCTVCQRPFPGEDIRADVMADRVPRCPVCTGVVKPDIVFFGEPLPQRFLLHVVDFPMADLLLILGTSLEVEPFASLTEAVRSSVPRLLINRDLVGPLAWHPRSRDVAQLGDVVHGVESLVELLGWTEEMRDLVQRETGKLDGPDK
Put plainly: Inhibition of human SIRT3 expressed in Escherichia coli BL21 using H3K9AcWW as substrate preincubated for 15 mins followed by substrate addition measured after 1 hr by HPLC analysis.

In assay [4] the target is T4, NAD-dependent protein deacetylase sirtuin-3, mitochondrial (Homo sapiens) (UniProt Q9NTG7).
T4 sequence (whole entry): T3 sequence (Q9NTG7 whole entry)
Put plainly: Inhibition of human SIRT3 expressed in Escherichia coli BL21 at 333 uM using H3K9AcWW as substrate preincubated for 15 mins followed by substrate addition measured after 1 hr by HPLC analysis relative to control.

Assay [5] concerns the target T2, NAD-dependent protein deacylase sirtuin-5, mitochondrial. Briefly: Inhibition of human SIRT5 expressed in Escherichia coli BL21 at 333 uM using H3K9AcWW as substrate preincubated for 15 mins followed by substrate addition measured after 1 hr by HPLC analysis relative to control.
Target sequence in this assay (Q9NXA8 37-310 limits assumed): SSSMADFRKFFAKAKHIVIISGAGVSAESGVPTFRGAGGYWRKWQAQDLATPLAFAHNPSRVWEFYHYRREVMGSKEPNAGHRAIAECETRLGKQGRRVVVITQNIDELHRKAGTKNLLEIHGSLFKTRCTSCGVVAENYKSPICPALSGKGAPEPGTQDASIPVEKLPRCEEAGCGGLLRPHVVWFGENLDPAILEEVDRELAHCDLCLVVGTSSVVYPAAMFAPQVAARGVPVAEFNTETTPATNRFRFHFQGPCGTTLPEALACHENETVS
The target in assay [6] is T5, NAD-dependent protein deacetylase sirtuin-1 (Homo sapiens) (UniProt Q96EB6).
T5 sequence (whole entry): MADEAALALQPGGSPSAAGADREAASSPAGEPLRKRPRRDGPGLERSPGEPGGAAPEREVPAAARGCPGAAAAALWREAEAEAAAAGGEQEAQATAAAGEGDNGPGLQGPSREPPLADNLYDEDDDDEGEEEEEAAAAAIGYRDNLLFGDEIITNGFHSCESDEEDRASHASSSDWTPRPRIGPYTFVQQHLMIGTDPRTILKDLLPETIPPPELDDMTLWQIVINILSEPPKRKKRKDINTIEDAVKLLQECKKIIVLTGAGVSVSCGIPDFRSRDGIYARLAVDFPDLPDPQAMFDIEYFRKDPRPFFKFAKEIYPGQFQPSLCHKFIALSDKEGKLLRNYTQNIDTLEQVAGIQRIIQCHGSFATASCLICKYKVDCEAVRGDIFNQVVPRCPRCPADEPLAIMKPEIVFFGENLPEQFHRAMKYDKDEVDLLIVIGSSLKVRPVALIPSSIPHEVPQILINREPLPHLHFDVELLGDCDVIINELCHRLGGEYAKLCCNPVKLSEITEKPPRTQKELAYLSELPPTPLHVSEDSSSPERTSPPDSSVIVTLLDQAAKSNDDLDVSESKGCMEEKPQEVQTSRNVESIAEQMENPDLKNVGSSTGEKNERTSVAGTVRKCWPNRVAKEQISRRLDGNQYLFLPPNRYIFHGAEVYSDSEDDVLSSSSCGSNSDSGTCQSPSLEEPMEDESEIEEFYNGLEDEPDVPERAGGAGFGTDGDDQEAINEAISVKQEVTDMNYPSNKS
Put plainly: Inhibition of human SIRT1 expressed in Escherichia coli BL21 at 333 uM using H3K9AcWW as substrate preincubated for 15 mins followed by substrate addition measured after 1 hr by HPLC analysis relative to control.

The target in assay [7] is T6, NAD-dependent protein deacetylase sirtuin-2 (Homo sapiens) (UniProt Q8IXJ6).
T6 sequence (whole entry): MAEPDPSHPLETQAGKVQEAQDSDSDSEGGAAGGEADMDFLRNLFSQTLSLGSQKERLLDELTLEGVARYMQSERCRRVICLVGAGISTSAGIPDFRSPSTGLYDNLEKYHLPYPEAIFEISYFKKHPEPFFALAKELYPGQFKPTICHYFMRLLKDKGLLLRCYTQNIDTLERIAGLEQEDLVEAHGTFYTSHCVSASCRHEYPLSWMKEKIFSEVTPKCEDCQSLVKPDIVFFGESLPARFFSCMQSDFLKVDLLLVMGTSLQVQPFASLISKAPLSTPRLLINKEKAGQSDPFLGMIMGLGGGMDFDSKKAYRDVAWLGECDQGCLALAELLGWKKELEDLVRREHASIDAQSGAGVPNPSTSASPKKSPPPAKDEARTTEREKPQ
Put plainly: Inhibition of human N-terminal His6-SUMO-tagged SIRT2 (38 to 356 residues) expressed in Escherichia coli BL21 at 333 uM using H3K9AcWW as substrate preincubated for 15 mins followed by substrate addition measured after 1 hr by HPLC analysis relative to control.

Assay [8] addresses T1, NAD-dependent protein deacylase sirtuin-6. Put plainly: Inhibition of human SIRT6 (1 to 294 residues) expressed in Escherichia coli Rosetta (DE3) at 333 uM using H3K9AcWW as substrate preincubated for 15 mins followed by substrate addition measured after 1 hr by HPLC analysis relative to control.
Assay [9] deals with T7, NAD-dependent protein deacetylase sirtuin-1 (Homo sapiens, UniProt Q96EB6).
T7 sequence (Q96EB6 whole entry): T5 sequence (whole entry)
Put plainly: Inhibition of human SIRT1 expressed in Escherichia coli BL21 using H3K9AcWW as substrate preincubated for 15 mins followed by substrate addition measured after 1 hr by HPLC analysis.

The target in assay [10] is T8, NAD-dependent protein deacetylase sirtuin-2 (Homo sapiens, UniProt Q8IXJ6).
T8 sequence (Q8IXJ6 whole entry): T6 sequence (whole entry)
Briefly: Inhibition of human N-terminal His6-SUMO-tagged SIRT2 (38 to 356 residues) expressed in Escherichia coli BL21 using H3K9AcWW as substrate preincubated for 15 mins followed by substrate addition measured after 1 hr by HPLC analysis.

Assay [11] concerns the target T6, NAD-dependent protein deacetylase sirtuin-2 (Homo sapiens). Briefly: Inhibition of human N-terminal His6-SUMO-tagged SIRT2 (38 to 356 residues) expressed in Escherichia coli BL21 at 250 uM using H3K9AcWW as substrate preincubated for 15 mins followed by substrate addition measured after 1 hr by HPLC analysis relative to control.
Assay [12] concerns the target T5, NAD-dependent protein deacetylase sirtuin-1 (Homo sapiens). Put plainly: Inhibition of human SIRT1 expressed in Escherichia coli BL21 at 250 uM using H3K9AcWW as substrate preincubated for 15 mins followed by substrate addition measured after 1 hr by HPLC analysis relative to control.
Assay [13] deals with T1, NAD-dependent protein deacylase sirtuin-6. Put plainly: Inhibition of human SIRT6 (1 to 294 residues) expressed in Escherichia coli Rosetta (DE3) at 250 uM using H3K9AcWW as substrate preincubated for 15 mins followed by substrate addition measured after 1 hr by HPLC analysis relative to control.
The target of assay [14] is T2, NAD-dependent protein deacylase sirtuin-5, mitochondrial. Put plainly: Inhibition of human SIRT5 expressed in Escherichia coli BL21 at 250 uM using H3K9AcWW as substrate preincubated for 15 mins followed by substrate addition measured after 1 hr by HPLC analysis relative to control.
Target sequence in this assay (Q9NXA8 37-310 limits assumed): as the sequence (Q9NXA8 37-310 limits assumed) above

One may read the IC50 as the concentration that gives 50% inhibition. Broadly, the inhibition is the share of the control response that was lost under treatment.

Calls of active or inactive are those of the source. The calls are words filed in the database; no cut-off is given here. Residues, ends and D or L forms follow the SMILES beside them. *: point of attachment. X3 = CCCCCCCCNC(=O)CCC*

T1 sequence (Q8N6T7 whole entry, the tested form may be a part): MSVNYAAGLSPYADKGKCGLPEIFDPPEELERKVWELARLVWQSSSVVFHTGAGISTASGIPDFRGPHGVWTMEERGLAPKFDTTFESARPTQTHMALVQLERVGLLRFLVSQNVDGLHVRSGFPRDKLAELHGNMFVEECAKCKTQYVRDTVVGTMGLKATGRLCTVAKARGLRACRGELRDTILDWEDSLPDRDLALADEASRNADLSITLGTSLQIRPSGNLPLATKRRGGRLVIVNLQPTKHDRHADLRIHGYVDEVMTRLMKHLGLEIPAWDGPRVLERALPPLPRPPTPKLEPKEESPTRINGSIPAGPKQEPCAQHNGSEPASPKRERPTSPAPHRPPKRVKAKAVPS

The molecule `NC(=O)CCCCC[C@H](N)C(=O)O` showed an IC50 in assay [1] of 20.9 µM.

On to `CCCCCCCCCCCCCC(=S)NCCCC[C@H](NC(=O)OCc1ccccc1)C(=O)Nc1ccccc1`, for which the concentration for half-maximal inhibition (IC50) in assay [2], in assay [1] and in assay [3] was greater than 200 µM each time.

In the case of `CCCCCCCCCCCCCNC(=O)CCCSC[C@H](NC(=O)OCc1ccccc1)C(=O)Nc1ccccc1`, the inhibition entry in [4], in assay [5] and in assay [6] was “inactive” throughout. For the same molecule, the inhibition in assay [7] was 20%; in [8] it was 31%.

As for `CCCCCCCCCCNC(=O)CCCSC[C@H](NC(=O)OCc1ccccc1)C(=O)Nc1ccccc1`, the inhibition in assay [4] came to 14%; in [5], 24%; in [7], 61%; in assay [8] it was 28%. In addition, in assay [6], the inhibition entry is “inactive”.

Regarding `CCCCCCCCNC(=O)CCCSC[C@H](NC(=O)OCc1ccccc1)C(=O)Nc1ccccc1`, the inhibition entry in assay [4], in assay [6] and in [8] was “inactive” throughout. Moreover, the inhibition in [5] turned out to be 14%; in assay [7], 60%.

Take `CCCCCCNC(=O)CCCSC[C@H](NC(=O)OCc1ccccc1)C(=O)Nc1ccccc1`: the inhibition entry in [4], in [5], in assay [6] and in assay [8] was “inactive” throughout. Moreover, the inhibition in [7] is 25%.

For `CCCCNC(=O)CCCSC[C@H](NC(=O)OCc1ccccc1)C(=O)Nc1ccccc1`, the inhibition entry in [4], in assay [5] and in assay [6] was “inactive” throughout. Besides, the inhibition worked out at 25% in [7] and 26% in assay [8].

`O=C(CCCSC[C@H](NC(=O)OCc1ccccc1)C(=O)Nc1ccccc1)NCc1ccc([N+](=O)[O-])cc1`: in assay [4], the inhibition worked out at 15%. Besides, the inhibition result in assay [5], in [6], in assay [7] and in [8] was “inactive” each time.

With `O=C(CCCSC[C@H](NC(=O)OCc1ccccc1)C(=O)Nc1ccccc1)NCc1ccccc1`, the inhibition in assay [4] was 11%; in [5], 34%; in assay [7], 47%; in assay [8] it was 30%. Further, in assay [6], the inhibition result is “inactive”.

Regarding `O=C(O)CCCNC(=O)CCCSC[C@H](NC(=O)OCc1ccccc1)C(=O)Nc1ccccc1`, the inhibition entry in assay [4], in [5], in assay [6] and in [7] was “inactive” throughout. Moreover, the inhibition in assay [8] came to 35%.

Consider `O=C(O)CCNC(=O)CCCSC[C@H](NC(=O)OCc1ccccc1)C(=O)Nc1ccccc1`, for which the inhibition result in assay [4], in [5], in assay [6] and in assay [7] was “inactive” each time. Further, in [8], the inhibition stood at 43%.

Turning to `O=C(O)CNC(=O)CCCSC[C@H](NC(=O)OCc1ccccc1)C(=O)Nc1ccccc1`, the inhibition entry in assay [4], in assay [5] and in assay [7] was “inactive” in each case. The inhibition in [6] was 26%; in [8] it was 53%.

For the molecule `CCCCCCCCNC(=O)CCCSC[C@H](NC(=O)[C@H](CCCNC(=N)N)NC(=O)[C@H](C)NC(=O)[C@@H](NC(=O)[C@H](CCC(N)=O)NC(=O)[C@@H](N)CCCCN)[C@@H](C)O)C(=O)N[C@@H](CO)C(=O)N[C@H](C(=O)NCC(=O)NCC(=O)N[C@@H](CCCCN)C(=O)O)[C@@H](C)O` (H-KQTARC(X3)STGGK-OH), the IC50 is greater than 500 µM in assay [2]; greater than 300 µM in assay [9]; 237 µM in assay [10]; greater than 500 µM in [1]; greater than 500 µM in assay [3]. Also, the values for the inhibition in assay [11] and in assay [12] were 66% and 23%, respectively. Further, the inhibition entry in [13] and in [14] was “inactive” throughout.

Values taken from ChEMBL document CHEMBL4118276, “The mimics of Nε-acyl-lysine derived from cysteine as sirtuin inhibitors” (Bioorg Med Chem Lett, 2018).
